# Results taken from US9624161B2 (priority 2009, dated 2017).
# Entries after “also recorded” stand apart in the source; their conditions may differ.
# How the values were obtained:
# [1] = test system: prostate epithelial cancer cells; assay: Proliferation of prostate epithelial cancer cells in vitro; type: cell-based
# [2] = biological target: T1, rat ER-β (Rattus norvegicus, UniProt Q62986); assay: Transactivation assay (agonist and antagonist modes), HEK-293 cells, ERE-LUC; type: cell-based
# T1 construct: expressed in transfected cells; host or cells: HEK-293
# T1 sequence (Q62986 whole entry): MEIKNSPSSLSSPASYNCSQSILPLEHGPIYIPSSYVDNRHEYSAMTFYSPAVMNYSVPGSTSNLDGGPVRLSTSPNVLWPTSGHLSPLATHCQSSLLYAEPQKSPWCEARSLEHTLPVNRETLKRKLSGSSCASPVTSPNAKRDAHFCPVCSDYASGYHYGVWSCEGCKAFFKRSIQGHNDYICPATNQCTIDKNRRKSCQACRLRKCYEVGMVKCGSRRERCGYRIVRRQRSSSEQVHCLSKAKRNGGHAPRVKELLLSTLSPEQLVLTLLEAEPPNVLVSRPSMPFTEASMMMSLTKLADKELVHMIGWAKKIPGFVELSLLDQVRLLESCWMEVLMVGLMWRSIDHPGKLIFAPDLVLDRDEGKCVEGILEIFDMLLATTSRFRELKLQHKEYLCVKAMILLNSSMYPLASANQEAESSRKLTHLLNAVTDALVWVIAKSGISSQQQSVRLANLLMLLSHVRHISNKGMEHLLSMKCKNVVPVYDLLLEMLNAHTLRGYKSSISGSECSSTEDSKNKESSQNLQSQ
# [3] = biological target: rat ER-α (Rattus norvegicus, UniProt P06211)
# rat ER-α, sequence (P06211 whole entry): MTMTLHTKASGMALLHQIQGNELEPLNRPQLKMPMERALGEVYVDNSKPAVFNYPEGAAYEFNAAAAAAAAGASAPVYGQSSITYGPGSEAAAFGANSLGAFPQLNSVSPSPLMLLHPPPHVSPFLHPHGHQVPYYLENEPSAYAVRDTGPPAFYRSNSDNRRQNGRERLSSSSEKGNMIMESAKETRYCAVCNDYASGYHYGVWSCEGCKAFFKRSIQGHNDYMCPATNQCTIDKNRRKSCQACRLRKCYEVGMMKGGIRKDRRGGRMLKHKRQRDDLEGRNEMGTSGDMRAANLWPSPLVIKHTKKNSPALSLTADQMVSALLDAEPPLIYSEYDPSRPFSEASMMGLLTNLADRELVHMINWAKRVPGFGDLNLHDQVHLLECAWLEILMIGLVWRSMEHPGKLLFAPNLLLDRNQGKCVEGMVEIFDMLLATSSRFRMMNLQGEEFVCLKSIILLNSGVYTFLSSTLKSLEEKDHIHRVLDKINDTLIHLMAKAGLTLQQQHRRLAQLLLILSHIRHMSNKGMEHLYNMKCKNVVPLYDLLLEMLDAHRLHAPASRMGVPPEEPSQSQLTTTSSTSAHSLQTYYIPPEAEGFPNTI
# [4] = test system: male Sprague-Dawley rats; assay: Recovery of testosterone levels after 3-day oral dosing in rats; type: in vivo, rat; conditions: 1 mg/kg oral for three days; no recovery
# Source text: Thirty-five (35) male Sprague-Dawley rats weighing approximately 200 g were maintained on a 12-h light/dark cycle with food (2016 Teklad Global 16% Protein Rodent Diet, Harlan, Madison, Wis.) and water available ad libitum. The animal protocol was reviewed and approved by the Institutional Animal Care and Use Committee of the University of Tennessee.
# The test article for this study was weighed and dissolved in PEG 300 (100%) (Acros Organics, NJ) to prepare the appropriate dose formulations. Animals were randomly assigned to one of the […] treatment groups (n=5 animals/group). The animals were housed in groups of 2 to 3 animals per cage. Group 1 was sacrificed at the initiation of the study (Day 1) for determination of baseline testosterone levels in intact animals. Groups 2-7 received daily doses of 1, 3, or 30 mg/kg via oral gavage (˜200 uL) for three days. Groups 2, 3, and 4 were sacrificed on Day 4 to measure maximal testosterone suppression. Groups 5, 6, and 7 were allowed to recover for 14 days with a drug free washout period.
# [5] = test system: treatment naïve prostate cancer patients; assay: Study 5: loading dose study (1000 mg BID, 1500 mg BID) in treatment naïve prostate cancer patients; type: in vivo; conditions: for Castration (%): patients receiving >14 days; for Subjects that reached castrate levels of serum total testosterone: subjects that had reached Day 28
# Method: Another study (Study 5) to assess 1000 mg twice per day and 1500 mg twice daily loading doses of Compound IV for 28 days was conducted. Subjects that were castrate on Day 28 received either 1000 mg or 2000 mg Compound IV daily to maintain the castration.
# Thirty (30) and 28 subjects were randomized to the 1500 mg BID and 1000 mg BID loading doses, respectively. Among the subjects that had reached Day 28, 90% (18/20) of the subjects in the 1500 mg BID dose group and 94% (17/18) of the subjects in the 1000 mg BID dose group had reached castrate levels of serum total testosterone. During this study, two (2) subjects in the 1500 mg BID dose group experienced a VTE, including one fatal pulmonary embolus (PE) and three (3) subjects in the 1000 mg BID dose group experienced a VTE. See FIG. 26 for an overview of all the clinical studies on Compound IV.
# [6] = test system: treatment naïve male Cynomolgus monkeys; assay: Suppression and recovery of androgen levels in intact male monkeys, 30 mg/kg oral for 7 days; type: in vivo, Cynomolgus monkey; design: Circulating androgen level (mean±SEM) / Circulating androgen level after recovery: unit not given here
# Method: The effect of Compound IV on suppression and recovery of testosterone levels in intact male monkeys was evaluated in conjunction with an oral pharmacokinetic study. Three treatment naïve male Cynomolgus monkeys (2 to 3 years old) were administered Compound IV at 30 mg/kg daily by oral gavage for 7 consecutive days. Blood samples were collected and divided into serum and plasma for testosterone and Compound IV quantitative measurements, respectively.
# [7] = test system: estrogen related receptor (ERR-α, ERR-β and ERR-γ); assay: Estrogen related receptor transactivation, DES versus Compound IV; type: cell-based; conditions: FIG. 12C
# [8] = test system: human males; assay: Multiple dose study in human males (100, 300, 600, 1000 mg; days 1-11); type: in vivo
structure (smiles),measurement,setting,value
"O=C(c1ccc(O)c(F)c1)N(c1ccc(O)cc1)c1ccc(F)cc1 [Compound IV, 3-fluoro-N-(4-fluorophenyl)-4-hydroxy-N-(4-hydroxyphenyl)benzamide]",Proliferation of prostate epithelial cancer cells,[1],does not increase proliferation; also recorded: did not increase proliferation
same,Fold less potency to stimulate ERβ-mediated transcription compared to estradiol,[2],~1400 fold
same,Antagonist effects on estradiol-stimulated transcriptional activation,"[3]; estradiol 1 nM, Compound IV up to 10 μM",no antagonist effects were observed
same,Relative selectivity in transactivation potency for ERα over ERβ,[3]; normalized to estradiol values,16 fold
same,Serum testosterone after dosing,[4],No significant suppression
same,Subjects that experienced a VTE,[5]; 1000 mg BID dose group,3 subjects
same,Castration (%),"[5]; 1000 mg BID, D28",84.2%
same,Castration (%),"[5]; 1000 mg BID, Ever",90%
same,Subjects that reached castrate levels of serum total testosterone,[5]; 1000 mg BID,94%
same,Subjects that experienced a VTE,"[5]; 1500 mg BID dose group, including one fatal pulmonary embolus",2 subjects
same,Castration (%),"[5]; 1500 mg BID, D28",85.7%
same,Castration (%),"[5]; 1500 mg BID, Ever",95.2%
same,Subjects that reached castrate levels of serum total testosterone,[5]; 1500 mg BID,90%
same,Circulating androgen level after recovery,"[6]; 30 mg/kg daily oral 7 days, then 18-day drug-free recovery",1757.7±369.5
same,Decrease of circulating androgen levels compared to baseline,"[6]; 30 mg/kg daily oral, 7 days, three monkeys",up to 47%
same,Circulating androgen level (mean±SEM),"[6]; 30 mg/kg daily oral, Day 2",997±104
same,Circulating androgen level (mean±SEM),"[6]; 30 mg/kg daily oral, Day 6",852±136
same,Effect on estrogen related receptor (ERR) transactivation,[7],does not; also recorded: failed to crossreact
same,Change of PSA level,[8]; 10 mg,No changes noted
same,Change of PSA level,[8]; 30 mg,No changes noted
same,Decrease of PSA level,[8]; 100 mg,9.2%
same,Decrease of free testosterone level,[8]; 100 mg,17.0%
